We go through 18 molecules from patent publication US7592350B2, “Polycyclic compounds as potent alpha2-adrenoceptor antagonists” (Orion Corporation, priority 2002, dated 2009).

One test has as its target T1, alpha2C-adrenoceptor (Homo sapiens, UniProt P18825).
T1 sequence (P18825 1-462): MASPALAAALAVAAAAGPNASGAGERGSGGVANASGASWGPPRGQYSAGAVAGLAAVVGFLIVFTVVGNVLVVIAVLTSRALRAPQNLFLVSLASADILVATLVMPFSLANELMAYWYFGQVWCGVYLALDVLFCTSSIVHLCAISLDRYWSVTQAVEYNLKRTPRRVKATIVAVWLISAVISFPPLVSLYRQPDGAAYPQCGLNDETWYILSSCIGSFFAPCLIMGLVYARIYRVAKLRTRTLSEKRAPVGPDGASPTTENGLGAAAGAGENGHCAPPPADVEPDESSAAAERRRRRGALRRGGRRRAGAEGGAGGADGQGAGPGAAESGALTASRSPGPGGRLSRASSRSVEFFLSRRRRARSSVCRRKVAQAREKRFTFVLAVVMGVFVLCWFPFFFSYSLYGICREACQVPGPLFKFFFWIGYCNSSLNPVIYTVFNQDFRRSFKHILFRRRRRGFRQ
Put plainly: Radioligand binding to alpha2-adrenoceptors (alpha2C).

In another test the target is T2, alpha2A-adrenoceptor (Homo sapiens, UniProt P08913).
T2 sequence (P08913 1-465): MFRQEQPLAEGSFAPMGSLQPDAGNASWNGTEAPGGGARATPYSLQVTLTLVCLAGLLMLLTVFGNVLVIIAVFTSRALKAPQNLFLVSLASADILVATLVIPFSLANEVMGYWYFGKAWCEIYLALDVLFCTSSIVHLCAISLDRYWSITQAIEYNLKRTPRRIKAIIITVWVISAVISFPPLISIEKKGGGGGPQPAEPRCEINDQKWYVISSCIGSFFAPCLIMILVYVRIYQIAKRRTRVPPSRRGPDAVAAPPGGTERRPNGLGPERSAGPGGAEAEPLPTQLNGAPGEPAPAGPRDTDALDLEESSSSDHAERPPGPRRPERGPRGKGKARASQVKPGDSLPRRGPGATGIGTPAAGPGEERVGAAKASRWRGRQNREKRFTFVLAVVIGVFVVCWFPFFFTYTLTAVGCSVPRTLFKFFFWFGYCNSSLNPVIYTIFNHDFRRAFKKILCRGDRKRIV
The test is described as follows: Radioligand binding to alpha2-adrenoceptors (alpha2A). The conditions noted are these: calculated Ki from radioligand binding assays; read-out: Binding affinity (Ki) alpha2A.

For another test, the target named is T3, alpha2B-adrenoceptor (Homo sapiens, UniProt P18089).
T3 sequence (P18089 1-450): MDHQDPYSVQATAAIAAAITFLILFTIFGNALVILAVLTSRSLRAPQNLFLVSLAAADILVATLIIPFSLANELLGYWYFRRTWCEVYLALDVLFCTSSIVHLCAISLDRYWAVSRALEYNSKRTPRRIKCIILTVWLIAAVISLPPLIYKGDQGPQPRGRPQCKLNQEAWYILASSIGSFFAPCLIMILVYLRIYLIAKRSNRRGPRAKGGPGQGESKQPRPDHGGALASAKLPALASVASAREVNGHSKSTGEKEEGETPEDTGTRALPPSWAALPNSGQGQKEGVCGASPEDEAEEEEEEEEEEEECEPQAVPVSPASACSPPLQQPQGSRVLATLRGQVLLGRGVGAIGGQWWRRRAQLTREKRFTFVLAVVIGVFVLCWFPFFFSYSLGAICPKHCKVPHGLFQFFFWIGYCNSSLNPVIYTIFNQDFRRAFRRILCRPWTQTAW
Put plainly: Radioligand binding to alpha2-adrenoceptors (alpha2B). The following applies: calculated Ki from radioligand binding assays; read-out: Binding affinity (Ki) alpha2B. An excerpt: Examples of the alpha2-adrenoceptor binding affinities of the compounds including in the present invention are shown in the Table 1. Many of these compouinds are high-affinity ligands for all the alpha2-receptors, but some of them display selectivity for the alpha2C-subtype.

For test [1], the system named is rats. The test is described as follows: Forced swimming test. It counts as in vivo. The conditions noted are these: 10 micromol/kg, compared to vehicle. Here is the method: Forced swimming test (FST, i.e. Porsolt's test) is generally used in the pharmacological screening of new-antidepressants. In this test, antidepressants increase the animals' activity compared to non-treated controls. […] Therefore, it was tested, whether a selective alfa2C-antagonist would have antidepressant-like activity (e.g. activity-increasing property) in the FST. […] Also the positive control substances desipramine and fluoxetine (clinically effective antidepressant agents) were active.

Another test relates to mice. Put plainly: Antagonism of alpha2-agonist (dexmedetomidine)-induced sedation. It counts as in vivo. The following applies: dexmedetomidine 50 nmol/kg s.c., antagonist pre-treatment. Here is the method:
(veh=vehicle). (***p<0.001, compared to Dex+vehicle)
One of the prominent effects of non-selective alpha2-agonists in rodents is their ability to cause profound sedation. This effect, measured as locomotor inhibition by the alpha2-agonist dexmedetomidine was not modified in mice with genetically altered alpha2C-expression (Scheinin, M. et al., Life Sci 68(19-20) (2001) 2277-85). […] This assumption was tested in experiment, where dexmedetomidine was administered to mice pre-treated with the alpha2C-antagonists compound K or compound L, or the subtype non-selective antagonist atipamezole (Haapalinna, A. et al., Naunyn-Schmiedeberg's Arch. Pharmacol. 356 (1997) 570-582).

The subject of test [2] is rats. The test is described as follows: Prepulse inhibition of the startle reflex. The format is in vivo. Here is the method:
FIGS. 4a and 4b show the effect of compounds K and L on the startle reflex and its prepulse inhibition in rats. (Veh=vehicle). Asterisks as in FIG. 1; comparisons were performed between PCP (phencyclidine)+vehicle and PCP+compounds K and L.
FIGS. 5a and 5b show the effect of the non-selective antagonist atiparnezole (ati) on the startle reflex and its prepulse inhibition in rats in the prescence of phencyclidine (PCP); (veh=vehicle). Asterisks as in FIG. 1, compared to the vehicle+PCP -group.
Prepulse-inhibition (PPI) of a startle response refers to the reduction in the startle response caused by a low intensity non-startling stimulus (the prepulse) which is presented shortly before the startle stimulus. PPI can be used as an operational measure of sensorimotor gating and appears to be present in all mammals, including rats and humans (Swerdlow, N. R. et al., The archives of general psychiatry 51 (1994) 139-154). Normally finctioning PPI can be disrupted by psychostimulants, such as d-amphetamine or phencyclidine (PCP), and reversed by clinically effective antipsychotics.
This hypothesis was tested with compounds K and L alone and against PCP disruption of the PPI. […]

[3] abbreviates: calculated Ki from radioligand binding assays, read-out: Binding affinity (Ki) alpha2C.

Like-named read-outs stand apart in the source and are kept apart here.

The term Ki denotes a dissociation constant, usually derived from enzyme kinetics or from competition with a known ligand. Consider `C[C@@H]1CCCN2CCc3c(oc4ccccc34)[C@@H]12` (relative stereo) [Compound G, 1-Methyl-1α,3,4,6,11bβ-hexahydro-2H-11-oxa4a-aza-benzo[a]fluorene], for which the Ki at alpha2C-adrenoceptor (setting [3]) was 22 nM; on alpha2A-adrenoceptor, 96 nM.

For the molecule `C[C@@]1(O)CCCN2CCc3c([nH]c4ccccc34)[C@H]21` (relative stereo) [Compound H, 1α-Methyl-1,2,3,4,6,7,12,12bβ-octahydroindolo[2,3-a]quinolizin-1-ol], the Ki was 45 nM on alpha2B-adrenoceptor, 23 nM on alpha2C-adrenoceptor (setting [3]) and 280 nM on alpha2A-adrenoceptor.

Take `CC[C@@H]1CCCN2CCc3c([nH]c4ccccc34)[C@@H]12` (relative stereo) [Compound J, 1β-ethyl-1,2,3,4,6,7,12,12bβ-octabydroindolo[2,3-a]quinolizine]: the inhibitory constant (Ki) at alpha2B-adrenoceptor was 520 nM; on alpha2C-adrenoceptor (setting [3]) it was 75 nM; at alpha2A-adrenoceptor, 210 nM.

With `CC[C@]1(CO)CCCN2CCc3c([nH]c4ccccc34)[C@H]21` (relative stereo) [Compound M, (1β-Ethyl-1,2,3,4,6,7,12,12bβ-octahydroindolo[2,3-a]quinolizin-1-yl)-methanol], the Ki on alpha2B-adrenoceptor was 470 nM; at alpha2C-adrenoceptor (setting [3]) it was 110 nM; on alpha2A-adrenoceptor, 440 nM.

In the case of `OC[C@H]1CCCN2CCc3c([nH]c4ccccc34)[C@H]12` (relative stereo) [Compound O, (1β,2,3,4,6,7,12,12bα-Octahydroindolo’[2,3-a]quinolizin-1-yl)-methanol], the Ki at alpha2B-adrenoceptor was 270 nM; on alpha2C-adrenoceptor (setting [3]) it was 110 nM; on alpha2A-adrenoceptor, 380 nM.

`CC(C)(C)[C@@H]1CCN2CCc3c([nH]c4ccccc34)[C@@H]2C1` (relative stereo) [Compound Q, 2β-tert-butyl-1,2,3,4,6,7,12,12bα-octahydro-indolo[2,3-a]quinolizine]: the Ki at alpha2B-adrenoceptor is 40 nM; at alpha2C-adrenoceptor (setting [3]) it was 6.4 nM; at alpha2A-adrenoceptor it was 27 nM.

Consider `CC(C)C1(O)CCCN2CCc3c([nH]c4ccccc34)C21` (stereo not drawn) [Compound A, 1α-Isopropyl-1,2,3,4,6,7,12,12bβ-octahydroindolo[2,3-a]quinolizin-1-ol], for which the inhibitory constant (Ki) on alpha2B-adrenoceptor is 330 nM; at alpha2C-adrenoceptor (setting [3]), 61 nM; at alpha2A-adrenoceptor, 480 nM.

As for `CCC1(O)C(C)CCN2CCc3c([nH]c4ccccc34)C21` (stereo not drawn) [Compound B, 1α-Ethyl-2α-methyl-1,2,3,4,6,7,12,12bβ-octahydro-indolo[2,3-a]quinoulzin-1-ol], the values for the Ki at alpha2B-adrenoceptor, at alpha2C-adrenoceptor (setting [3]) and at alpha2A-adrenoceptor were 160 nM, 25 nM and 130 nM, respectively.

For `CCC(C)C1(O)CCCN2CCc3c([nH]c4ccccc34)C21` (stereo not shown) [Compound C, 1-s-Butyl-1,2,3,4,6,7,12,12bβ-octahydro-indolo[2,3-a]quinolizin-1-ol], the Ki is 580 nM on alpha2B-adrenoceptor, 87 nM at alpha2C-adrenoceptor (setting [3]) and 710 nM at alpha2A-adrenoceptor.

As to `COC1CCN2CCc3c([nH]c4ccccc34)C2C1` (stereo not drawn) [Compound D, 2α-Methoxy-1,2,3,4,6,7,12,12bα-octahydro-indolo[2,3-a]quinolizine], the figures for the inhibition constant Ki on alpha2B-adrenoceptor, at alpha2C-adrenoceptor (setting [3]) and at alpha2A-adrenoceptor were 81 nM, 17 nM and 29 nM, respectively.

`c1ccc2c3c([nH]c2c1)C1CCCCCN1CC3` (stereo not shown) [Compound E, 2,3,4,5,7,8,13,13b-Octahydro-1H-azepino[1′,2′1,2]pyrido[3,4-b]indole]: the values for the Ki at alpha2B-adrenoceptor, at alpha2C-adrenoceptor (setting [3]) and at alpha2A-adrenoceptor were 110 nM, 26 nM and 30 nM, respectively.

`OC12CCCCC1CCN1CCc3c([nH]c4ccccc34)C12` (stereo not shown) [Compound F, 2,3,4,4aβ,5,6,7,8,13,13bβ-Decahydro-1H-6a,13-diaza-indeno[1,2-c]phenanthren-13cβ-ol]: the results for the Ki on alpha2C-adrenoceptor (setting [3]) and at alpha2A-adrenoceptor were 70 nM and 514 nM, respectively.

Take `C1=CCN2CCc3c([nH]c4ccccc34)C2C1` (stereo not shown) [Compound I, 1,4,6,7,12,12b-Hexahdroindolo[2,3-a]quinolizine]: the values for the Ki at alpha2B-adrenoceptor, on alpha2C-adrenoceptor and at alpha2A-adrenoceptor were 460 nM, 85 nM and 150 nM, respectively.

In the case of `CCC1=C(C)CC2c3[nH]c4ccccc4c3CCN2C1` (stereo not shown) [Compound N, 3-Ethyl-2-methyl-1,4,6,7,12,12b-hexahydro-indolo[2,3-a]quinolizine], the Ki at alpha2B-adrenoceptor is 1110 nM; on alpha2C-adrenoceptor (setting [3]) it was 46 nM; at alpha2A-adrenoceptor it was 130 nM.

Take `CC(O)C1CCCN2CCc3c([nH]c4ccccc34)C12` (stereo not drawn) [Compound P, 1-(1α2,3,4,6,7,12 12bβ-Octahydroindolo[2,3-a]quinolizin-1-yl)-ethanol]: the Ki is 410 nM on alpha2B-adrenoceptor, 90 nM on alpha2C-adrenoceptor (setting [3]) and 290 nM at alpha2A-adrenoceptor.

Take `CCC1(c2cnc[nH]2)Cc2ccccc2C1` [atipamezole]: in the test on rats [1], the “Activity in the forced swimming test” value is reported as “did not possess antidepressant-like effect”. In addition, the “Antagonism of dexmedetomidine-induced sedation (locomotor inhibition)” value in the test with mice was “effectively antagonised the effect of dexmedetomidine”. For the same molecule, the “Effect on prepulse inhibition (PPI) disrupted by PCP” value in the test with rats [2] (antagonist 20 min, PCP 10 min before measurement) is “did not enhance PPI”. For the same molecule, the “Effect on startle reflex per se (startle without prepulses)” value in the test with rats [2] (in the presence of PCP) was “increased the startle reflex per se”.

With `CNCCCN1c2ccccc2CCc2ccccc21` [desipramine], in the test with rats [1], the “Activity in the forced swimming test” value is “increased activity”.

Take `CNCCC(Oc1ccc(C(F)(F)F)cc1)c1ccccc1` (stereo not shown) [fluoxetine]: in the test on rats [1], the “Activity in the forced swimming test” value is on record as “increased activity”.
